According to ChEMBL document CHEMBL1201862, “PubChem BioAssay data set” (2004):
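48-hour exposure; five concentrations; linearly interpolated endpoints. At the GI50, growth is halved.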 Calls of active or inactive are those of the source. Cut-off read from the data, not from the text of the source: active = GI50 up to about 1.1 µM and inactive = higher.

Tests used:
Experiment in all cases: inhibition of tumour cell growth, NCI panel, 48 h
786-0 = system: 786-0
A498 = system: A498
A549 = system: A549
ACHN = system: ACHN
BT-549 = system: BT-549
CAKI-1 = system: CAKI-1
CCRF-CEM = system: CCRF-CEM
COLO 205 = system: COLO 205
DU-145 = system: DU-145
EKVX = system: EKVX
HCT-116 = system: HCT-116
HCT-15 = system: HCT-15
HL-60 = system: HL-60
HOP-62 = system: HOP-62
HOP-92 = system: HOP-92
HT-29 = system: HT-29
Hs-578T = system: Hs-578T
IGROV-1 = system: IGROV-1
K562 = system: K562
KM12 = system: KM12
LOX IMVI = system: LOX IMVI
M14 = system: M14
MCF7 = system: MCF7
MDA-MB-231 = system: MDA-MB-231
MDA-MB-435 = system: MDA-MB-435
MOLT-4 = system: MOLT-4
Malme-3M = system: Malme-3M
NCI-H23 = system: NCI-H23
NCI-H460 = system: NCI-H460
NCI-H522 = system: NCI-H522
NCI/ADR-RES = system: NCI/ADR-RES
OVCAR-3 = system: OVCAR-3
OVCAR-4 = system: OVCAR-4
OVCAR-5 = system: OVCAR-5
OVCAR-8 = system: OVCAR-8
PC-3 = system: PC-3
RPMI-8226 = system: RPMI-8226
RXF 393 = system: RXF 393
SF-268 = system: SF-268
SF-295 = system: SF-295
SF-539 = system: SF-539
SK-MEL-28 = system: SK-MEL-28
SK-MEL-2 = system: SK-MEL-2
SK-MEL-5 = system: SK-MEL-5
SK-OV-3 = system: SK-OV-3
SN12C = system: SN12C
SNB-19 = system: SNB-19
SNB-75 = system: SNB-75
SR = system: SR
SW-620 = system: SW-620
T47D = system: T47D
TK-10 = system: TK-10
U-251 = system: U-251
UACC-257 = system: UACC-257
UACC-62 = system: UACC-62
UO-31 = system: UO-31
HCC 2998 = system: HCC 2998
MDA-N = system: MDA-N
NCI-H226 = system: NCI-H226

Structure (SMILES): O=C(/C=C/c1ccc(Oc2cc(C(=O)/C=C/c3ccc(O)cc3)c(O)cc2O)cc1)c1ccc(O)cc1O [RHUSCHALCONE II]
- GI50 (786-0): 3.59 µM (inactive)
- GI50 (A498): 2.65 µM (inactive)
- GI50 (A549): 15.5 µM (inactive)
- GI50 (ACHN): 9.29 µM (inactive)
- GI50 (BT-549): 9.84 µM (inactive)
- GI50 (CAKI-1): 4.14 µM (inactive)
- GI50 (CCRF-CEM): 2.51 µM (inactive)
- GI50 (COLO 205): 2.61 µM (inactive)
- GI50 (DU-145): 3.38 µM (inactive)
- GI50 (EKVX): 13.2 µM (inactive)
- GI50 (HCT-116): 2.25 µM (inactive)
- GI50 (HCT-15): 5.97 µM
- GI50 (HL-60): 4.14 µM (inactive)
- GI50 (HOP-62): 5.38 µM (inactive)
- GI50 (HOP-92): 16.5 µM (inactive)
- GI50 (HT-29): 1.92 µM (inactive)
- GI50 (Hs-578T): 7.28 µM (inactive)
- GI50 (IGROV-1): 3.38 µM (inactive)
- GI50 (K562): 3.47 µM (inactive)
- GI50 (KM12): 2.15 µM (inactive)
- GI50 (LOX IMVI): 5.47 µM (inactive)
- GI50 (M14): 10.3 µM (inactive)
- GI50 (MCF7): 4.26 µM (inactive)
- GI50 (MDA-MB-231): 5.08 µM (inactive)
- GI50 (MDA-MB-435): 4.15 µM (inactive)
- GI50 (MOLT-4): 4.09 µM (inactive)
- GI50 (Malme-3M): 10.6 µM (inactive)
- GI50 (NCI-H23): 6.19 µM (inactive)
- GI50 (NCI-H460): 7.89 µM (inactive)
- GI50 (NCI-H522): 4.82 µM (inactive)
- GI50 (NCI/ADR-RES): 3.85 µM (inactive)
- GI50 (OVCAR-3): 3.42 µM (inactive)
- GI50 (OVCAR-4): 4.98 µM (inactive)
- GI50 (OVCAR-5): 5.27 µM (inactive)
- GI50 (OVCAR-8): 2.64 µM (inactive)
- GI50 (PC-3): 5.27 µM (inactive)
- GI50 (RPMI-8226): 2.86 µM (inactive)
- GI50 (RXF 393): 4.97 µM (inactive)
- GI50 (SF-268): 4.83 µM (inactive)
- GI50 (SF-295): 5.96 µM (inactive)
- GI50 (SF-539): 2.43 µM (inactive)
- GI50 (SK-MEL-28): 2.52 µM (inactive)
- GI50 (SK-MEL-2): 7.6 µM (inactive)
- GI50 (SK-MEL-5): 4.4 µM (inactive)
- GI50 (SK-OV-3): 3.17 µM (inactive)
- GI50 (SN12C): 4.41 µM (inactive)
- GI50 (SNB-19): 6.89 µM (inactive)
- GI50 (SNB-75): 4.63 µM (inactive)
- GI50 (SR): 3.35 µM (inactive)
- GI50 (SW-620): 4.82 µM (inactive)
- GI50 (T47D): 5.93 µM (inactive)
- GI50 (TK-10): 3.07 µM (inactive)
- GI50 (U-251): 3.89 µM (inactive)
- GI50 (UACC-257): 12.7 µM (inactive)
- GI50 (UACC-62): 4.62 µM (inactive)
- GI50 (UO-31): 6.3 µM (inactive)

Structure (SMILES): O=C(c1ccccc1)c1ccc2[nH]c(-c3c(Cl)c(Cl)c(Cl)c(Cl)c3C(=O)Nc3ccco3)nc2c1
- GI50 (786-0): 96.2 µM (inactive)
- GI50 (A498): 20 µM (inactive)
- GI50 (A549): 26.5 µM (inactive)
- GI50 (ACHN): > 100 µM (inactive)
- GI50 (BT-549): 22.2 µM (inactive)
- GI50 (CAKI-1): > 100 µM (inactive)
- GI50 (CCRF-CEM): 26.9 µM (inactive)
- GI50 (COLO 205): 45.5 µM (inactive)
- GI50 (DU-145): 78.9 µM (inactive)
- GI50 (EKVX): 67 µM (inactive)
- GI50 (HCC 2998): 15.4 µM (inactive)
- GI50 (HCT-116): 34 µM (inactive)
- GI50 (HCT-15): 27.2 µM
- GI50 (HL-60): 24.2 µM (inactive)
- GI50 (HOP-62): 45.3 µM (inactive)
- GI50 (HOP-92): 40.5 µM (inactive)
- GI50 (HT-29): 28.4 µM (inactive)
- GI50 (IGROV-1): 41.1 µM (inactive)
- GI50 (K562): 16.6 µM (inactive)
- GI50 (KM12): 33 µM (inactive)
- GI50 (LOX IMVI): 38.1 µM (inactive)
- GI50 (M14): 36.7 µM (inactive)
- GI50 (MCF7): 24.8 µM (inactive)
- GI50 (MDA-MB-231): 34.4 µM (inactive)
- GI50 (MDA-MB-435): 12.6 µM (inactive)
- GI50 (MDA-N): 15.3 µM (inactive)
- GI50 (MOLT-4): 18.6 µM (inactive)
- GI50 (NCI-H226): 54.2 µM (inactive)
- GI50 (NCI-H23): 4.86 µM (inactive)
- GI50 (NCI-H460): 33.5 µM (inactive)
- GI50 (NCI-H522): 25.7 µM (inactive)
- GI50 (NCI/ADR-RES): 16.4 µM (inactive)
- GI50 (OVCAR-3): 49.4 µM (inactive)
- GI50 (OVCAR-4): 42.3 µM (inactive)
- GI50 (OVCAR-5): > 100 µM (inactive)
- GI50 (OVCAR-8): 60.3 µM (inactive)
- GI50 (PC-3): 17.1 µM (inactive)
- GI50 (RPMI-8226): 19.8 µM (inactive)
- GI50 (RXF 393): 41.8 µM (inactive)
- GI50 (SF-268): 27 µM (inactive)
- GI50 (SF-295): 23.6 µM (inactive)
- GI50 (SK-MEL-28): 81.1 µM (inactive)
- GI50 (SK-MEL-2): 20.9 µM (inactive)
- GI50 (SK-MEL-5): 28.4 µM (inactive)
- GI50 (SK-OV-3): > 100 µM (inactive)
- GI50 (SN12C): 48.2 µM (inactive)
- GI50 (SNB-19): 99.8 µM (inactive)
- GI50 (SNB-75): > 100 µM (inactive)
- GI50 (SR): 12.6 µM (inactive)
- GI50 (SW-620): 37.8 µM (inactive)
- GI50 (T47D): 37 µM (inactive)
- GI50 (TK-10): 39.7 µM (inactive)
- GI50 (U-251): 42.5 µM (inactive)
- GI50 (UACC-257): 45.7 µM (inactive)
- GI50 (UACC-62): 49.5 µM (inactive)
- GI50 (UO-31): 51.5 µM (inactive)
